Our source for the solubility in water values is US11771648B2, “Carrier for oromucosal administration of physiologically active substances” (INSTAR TECHNOLOGIES A.S., priority 2011, dated 2023).

A short description of this data set: solubility in water (stated in words, no method described). The settings on record: qualitative statement. The format is physicochemical.

For the compound `COc1ccc2cc(CCC(C)=O)ccc2c1` [Nabumetone, 4-(6-methoxy-2-nafthyl)-2-butanon], the solubility in water entry was “very well soluble in water”.
Then `CNS(=O)(=O)Cc1ccc2[nH]cc(CCN(C)C)c2c1` [Sumatriptane, 1-[3-(2-dimethylaminoethyl)-1H-indol-5-yl]-N-methyl-methanesulfonamide], with “good solubility in water”.
